Our source for the MIC values is patent publication EP0700399B1, “36-DERIVATIVES OF RIFAMYCINS AND THEIR USE AS ANTIMICROBIAL AGENTS” (GRUPPO LEPETIT S.P.A., priority 1993, dated 1994).

Where two headings read alike, the source gives them in different places.

The subject of assay [1] is Neisseria gonorrhoeae. The assay is described as follows: MIC by broth microdilution. Type of assay: cell-based. Particulars: Neisseria gonorrhoeae; internal code L997; 5% carbon dioxide, 48 hours; read-out: MIC of the compounds. (In general: In broth dilution the organism is exposed to a series of concentrations in liquid medium.)
Assay [2] relates to Pseudomonas aerug. ATCC10145. The assay is described as follows: MIC by broth microdilution. The class given is cell-based, Pseudomonas aeruginosa. Particulars: Pseudomonas, ATCC10145; internal code L4; read-out: MIC of the compounds.
Assay [3] relates to Escherichia coli. Description: MIC by broth microdilution. The class given is cell-based. Particulars: Escherichia coli; internal code L47; read-out: MIC of the compounds.
The subject of assay [4] is Staph. haemolyticus rifa-r^(2). Description: MIC by broth microdilution. Type of assay: cell-based. Particulars: Staphylococcus haemolyticus, read-out: MIC of the compounds.
Assay [5] has as its system Proteus vulgaris ATCC 881. Description: MIC by broth microdilution. Type of assay: cell-based. Particulars: Proteus vulgaris, ATCC881; internal code L79; read-out: MIC of the compounds.
Assay [6] relates to Haemoph. influenzae ATCC 19418. The assay is described as follows: MIC by broth microdilution. The class given is cell-based, Haemophilus influenzae. Particulars: Haemophilus influenzae, ATCC19418; internal code L970; 5% carbon dioxide, 48 hours; read-out: MIC of the compounds.
Assay [7] concerns Propionibact. acnes ATCC 6919. Description: MIC by broth microdilution. The class given is cell-based, Propionibacterium acnes. The note with it: Cutibacterium acnes, ATCC6919; internal code L1014; anaerobic, 48 hours; read-out: MIC of the compounds.
Assay [8] has as its system Staph. aureus rifa-r^(2). The assay is described as follows: MIC by broth microdilution. The note with it: Staphylococcus aureus, read-out: MIC of the compounds. The class given is cell-based.
Assay [9] relates to Enterococc. faecalis ATCC 7080. The assay is described as follows: MIC by broth microdilution. The class given is cell-based, Enterococcus faecalis. Particulars: Enterococcus faecalis, ATCC7080; internal code L149; read-out: MIC of the compounds.
Assay [10] has as its system Strept. pneumoniae. The assay is described as follows: MIC by broth microdilution. Type of assay: cell-based. The note with it: Streptococcus pneumoniae; internal code L44; read-out: MIC of the compounds.
In assay [11] the test system is Esch. coli K12 hyperpermeable. The assay is described as follows: MIC by broth microdilution. The class given is cell-based, Escherichia coli. The note with it: Escherichia coli, read-out: MIC of the compounds.
Assay [12] relates to Esch. coli K12 wild type. Description: MIC by broth microdilution. The class given is cell-based. Particulars: Escherichia coli, K12WILDTYPE, internal code G210, read-out: MIC of the compounds.
The test system of assay [13] is Staph. epidermidis ATCC 12228. Description: MIC by broth microdilution. The class given is cell-based. Particulars: Staphylococcus epidermidis, ATCC12228; internal code L147; read-out: MIC of the compounds.
In assay [14] the test system is Streptococcus pyogenes. Description: MIC by broth microdilution. Type of assay: cell-based. The note with it: Streptococcus pyogenes; internal code L49; read-out: MIC of the compounds.
The test system of assay [15] is Staphylococcus aureus. Description: MIC by broth microdilution. The note with it: Staphylococcus aureus; internal code L165; read-out: MIC of the compounds. Type of assay: cell-based.
Assay [16] concerns Esch. coli K12 rifa-r^(1). Description: MIC by broth microdilution. Type of assay: cell-based, Escherichia coli. Particulars: Escherichia coli, read-out: MIC of the compounds.
For assay [17], the system named is Bacteroides fragilis ATCC 23745. Description: MIC by broth microdilution. The note with it: Bacteroides fragilis, ATCC23745; internal code L1010; anaerobic, 48 hours; read-out: MIC of the compounds. Type of assay: cell-based.
The subject of assay [18] is Clostridium perfringens. The assay is described as follows: microbe, parasite or virus in culture. Particulars: read-out: MIC of the compounds. The class given is cell-based.
Assay [19] relates to Bacteroides fragilis ATCC 25285. The assay is described as follows: MIC by broth microdilution. Particulars: Bacteroides fragilis, ATCC25285; internal code L1011; anaerobic, 48 hours; read-out: MIC of the compounds. Type of assay: cell-based.
Assay [20] concerns Moraxella catarr. ATCC 8178. The assay is described as follows: MIC by broth microdilution. Particulars: ATCC8178, internal code L76, read-out: MIC of the compounds. Type of assay: cell-based, Moraxella catharralis.
The test system of assay [21] is Staph. aureus rifa-r^(1). The assay is described as follows: MIC by broth microdilution. The class given is cell-based. Particulars: Staphylococcus aureus, read-out: MIC of the compounds.
Assay [22] relates to Klebsiella pneumoniae. Description: MIC by broth microdilution. The class given is cell-based. Particulars: internal code L142, read-out: MIC of the compounds.

`CCN(CC)CC(=O)O[C@H]1[C@H](C)[C@H](O)[C@H](C)[C@@H](O)[C@@H](C)/C=C/C=C(/C)C(=O)NC2=CC(=O)c3c(c(O)c(C)c4c3C(=O)[C@@](C)(O/C=C/[C@H](OC)[C@H]1C)O4)C2=O` [Compound C12, 36-Diethylaminorifamycin S]: the MIC in assay [1] came out at 1 µg/mL; in assay [2], 32 µg/mL; in assay [3], 32 µg/mL; in assay [4], 64 µg/mL; in assay [5], 8 µg/mL; in [6], 1 µg/mL. Besides, the MIC in assay [7] is 0.5 µg/mL; in assay [8] it was 32 µg/mL; in assay [9], 0.25 µg/mL; in assay [10] it was 0.03 µg/mL; in assay [11], ≤ 0.13 µg/mL; in assay [12], 64 µg/mL. Moreover, the MIC in assay [13] was 0.008 µg/mL; in [14], 0.06 µg/mL; in assay [15] it was 0.03 µg/mL; in assay [16], > 128 µg/mL; in assay [17], 2 µg/mL.
Take `CO[C@H]1/C=C/O[C@@]2(C)Oc3c(C)c(O)c4c(c3C2=O)C(=O)C=C(NC(=O)/C(C)=C\C=C\[C@H](C)[C@H](O)[C@@H](C)[C@@H](O)[C@@H](C)[C@H](OC(=O)CF)[C@@H]1C)C4=O` [Compound C2, 36-Fluororifamycin S]: the MIC in assay [1] was 2 µg/mL; in [2], 64 µg/mL; in assay [3], 128 µg/mL; in assay [4] (internal code L602, rifampicin resistant strain, highly resistant) it was ≥ 128 µg/mL; in [5], 32 µg/mL; in [6] it was 2 µg/mL. The MIC in assay [7] is 0.13 µg/mL; in assay [8] (internal code L1282, rifampicin resistant strain, highly resistant) it was 64 µg/mL; in [9], 1 µg/mL; in assay [10] it was 0.015 µg/mL; in assay [11] (internal code G1640, hyperpermeable) it was 1 µg/mL; in assay [12], ≥ 128 µg/mL. Also, the MIC is 0.015 µg/mL in [13]; 0.008 µg/mL in assay [14]; 0.015 µg/mL in assay [15]; > 128 µg/mL in [16] (internal code G1064, rifampicin resistant strain, moderately resistant); 2 µg/mL in assay [17].
On to `CO[C@H]1/C=C/O[C@@]2(C)Oc3c(C)c(O)c4c(c3C2=O)C(=O)C=C(NC(=O)/C(C)=C\C=C\[C@H](C)[C@H](O)[C@@H](C)[C@@H](O)[C@@H](C)[C@H](OC(=O)CSC)[C@@H]1C)C4=O` [Compound C4, 36-Methylthiorifamycin S], for which the MIC in assay [1] amounted to 0.5 µg/mL; in assay [2] it was 32 µg/mL; in [3], 64 µg/mL; in assay [4], 128 µg/mL; in assay [5] it was 8 µg/mL; in [6] it was 1 µg/mL. The MIC in assay [7] is 0.06 µg/mL; in [8] it was 32 µg/mL; in assay [9], 0.5 µg/mL; in assay [10] it was 0.002 µg/mL; in [11] it was 0.51 µg/mL; in assay [12], 64 µg/mL. The MIC in assay [13] is 0.001 µg/mL; in assay [14], 0.008 µg/mL; in assay [15] it was 0.008 µg/mL; in [16] it was > 128 µg/mL; in assay [17], 0.5 µg/mL.
For the molecule `CO[C@H]1/C=C/O[C@@]2(C)Oc3c(C)c(O)c4c(c3C2=O)C(=O)C(N2CCOCC2)=C(NC(=O)/C(C)=C\C=C\[C@H](C)[C@H](O)[C@@H](C)[C@@H](O)[C@@H](C)[C@H](OC(=O)CBr)[C@@H]1C)C4=O` [Compound C8, 36-Bromo-3-(4-morpholinyl)rifamycin S], the MIC in assay [1] is 0.03 µg/mL; in [18] it was 0.001 µg/mL; in assay [2] it was 16 µg/mL; in assay [3] it was 8 µg/mL; in assay [4], 16 µg/mL; in [19], 0.03 µg/mL. Further, the MIC was determined as 8 µg/mL in [5]; 0.13 µg/mL in [6]; 0.004 µg/mL in assay [7]; 0.002 µg/mL in assay [20]; 0.5 µg/mL in [8]; 0.5 µg/mL in [21]. Further, the MIC in assay [9] is 0.5 µg/mL; in assay [10], 0.03 µg/mL; in assay [11], ≤ 0.13 µg/mL; in assay [22], 16 µg/mL; in assay [13], 0.001 µg/mL; in assay [14], 0.06 µg/mL. Besides, the MIC in assay [15] is 0.002 µg/mL; in assay [16], > 128 µg/mL.
As to `CO[C@H]1/C=C/O[C@@]2(C)Oc3c(C)c(O)c4c(c3C2=O)C(=O)C=C(NC(=O)/C(C)=C\C=C\[C@H](C)[C@H](O)[C@@H](C)[C@@H](O)[C@@H](C)[C@H](OC(=O)CBr)[C@@H]1C)C4=O` [Compound C1, 36-Bromorifamycin S], the MIC in [1] came to 1 µg/mL; in assay [18] it was 0.0003 µg/mL; in [2], 32 µg/mL; in [3], 32 µg/mL; in assay [4] it was 32 µg/mL; in assay [19] it was 1 µg/mL. The MIC in [5] was found to be 16 µg/mL; in assay [6] it was 1 µg/mL; in [7], 0.016 µg/mL; in assay [20], 0.008 µg/mL; in assay [8], 2 µg/mL; in [21], 0.25 µg/mL. The MIC came to 1 µg/mL in assay [9]; 0.03 µg/mL in assay [10]; 0.25 µg/mL in [11]; 128 µg/mL in assay [22]; 0.004 µg/mL in [13]; 0.03 µg/mL in assay [14]. The MIC in assay [15] was 0.004 µg/mL; in assay [16], > 128 µg/mL.
Turning to `CO[C@H]1/C=C/O[C@@]2(C)Oc3c(C)c(O)c4c(c3C2=O)C(=O)C=C(NC(=O)/C(C)=C\C=C\[C@H](C)[C@H](O)[C@@H](C)[C@@H](O)[C@@H](C)[C@H](OC(=O)COC(C)=O)[C@@H]1C)C4=O` [Compound C13, 36-Acetyloxyrifamycin S], the MIC was 0.25 µg/mL in [1]; 0.0005 µg/mL in assay [18]; 32 µg/mL in assay [2]; 16 µg/mL in assay [3]; 32 µg/mL in [4]; 0.5 µg/mL in [19]. Moreover, the MIC in assay [5] amounted to 8 µg/mL; in [6], 0.5 µg/mL; in [7] it was 0.03 µg/mL; in assay [20], 0.004 µg/mL; in assay [8], 4 µg/mL; in assay [21], 0.25 µg/mL. Further, the MIC in assay [9] was 0.13 µg/mL; in assay [10], 0.008 µg/mL; in assay [11], ≤ 0.13 µg/mL; in assay [22], 64 µg/mL; in assay [13], 0.001 µg/mL; in [14], 0.008 µg/mL. Moreover, the MIC is 0.002 µg/mL in assay [15] and > 128 µg/mL in [16].
In the case of `CO[C@H]1/C=C/O[C@@]2(C)Oc3c(C)c(O)c4c(c3C2=O)C(=O)C(N2CCOCC2)=C(NC(=O)/C(C)=C\C=C\[C@H](C)[C@H](O)[C@@H](C)[C@@H](O)[C@@H](C)[C@H](OC(=O)CO)[C@@H]1C)C4=O` [Compound C15, 36-Hydroxy-3-(4-morpholinyl)rifamycin S], the MIC in [1] was 0.03 µg/mL; in assay [18], 0.001 µg/mL; in [2], 16 µg/mL; in [3] it was 8 µg/mL; in assay [4], 4 µg/mL; in assay [19], 0.03 µg/mL. Besides, the MIC amounted to 8 µg/mL in assay [5]; 0.06 µg/mL in [6]; 0.016 µg/mL in assay [7]; 0.002 µg/mL in assay [20]; 4 µg/mL in assay [8]; 2 µg/mL in assay [21]. For the same molecule, the MIC in assay [9] is 0.5 µg/mL; in [10], 0.016 µg/mL; in assay [11] it was ≤ 0.13 µg/mL; in [22], 8 µg/mL; in assay [13], 0.001 µg/mL; in assay [14] it was 0.03 µg/mL. The results for the MIC in assay [15] and in [16] were 0.002 µg/mL and > 128 µg/mL, respectively.
